From patent US9708339B2, “1,3-benzothiazinone, sulfoxide, and sulfone compounds with electrophilic substituent” (priority 2014, dated 2017)
“Also recorded” adds a separate entry of the source. Like-named read-outs stand apart in the source and are kept apart here.

How the values were obtained:
DprE1 = DprE1 (Mycobacterium tuberculosis, UniProt P9WJF0); conditions: cited from earlier work
H37Rv strain of Mtb = assay: Microplate alamar blue assay (MABA), in vitro anti-TB activity in 7H12 and GAS media; format: cell-based, Mycobacterium tuberculosis; conditions: for MIC / percentage in brackets after MIC >1, 7H12 / percentage in brackets after MIC >1, GAS: H37Rv; for activity against H37Rv strain of Mtb (in words): in vitro; for percentage in brackets after MIC >1, 7H12: 7H12 medium; for percentage in brackets after MIC >1, 7H12 / percentage in brackets after MIC >1, GAS: bracketed percentage not defined in the patent; for percentage in brackets after MIC >1, GAS: GAS medium
[1] = Mycobacterium tuberculosis, 7H12 medium (7H9 plus casitone, palmitic acid, albumin and catalase), read-out: MABA:MIC 7H12
[2] = Mycobacterium tuberculosis, GAS (glycerol-alanine-salts) medium, read-out: MABA:MIC GAS
[3] = 7H12 medium (7H9 plus casitone, palmitic acid, albumin and catalase), read-out: MABA:MIC 7H12
[4] = GAS (glycerol-alanine-salts) medium, read-out: MABA:MIC GAS

Chain of DprE1 (P9WJF0 whole entry): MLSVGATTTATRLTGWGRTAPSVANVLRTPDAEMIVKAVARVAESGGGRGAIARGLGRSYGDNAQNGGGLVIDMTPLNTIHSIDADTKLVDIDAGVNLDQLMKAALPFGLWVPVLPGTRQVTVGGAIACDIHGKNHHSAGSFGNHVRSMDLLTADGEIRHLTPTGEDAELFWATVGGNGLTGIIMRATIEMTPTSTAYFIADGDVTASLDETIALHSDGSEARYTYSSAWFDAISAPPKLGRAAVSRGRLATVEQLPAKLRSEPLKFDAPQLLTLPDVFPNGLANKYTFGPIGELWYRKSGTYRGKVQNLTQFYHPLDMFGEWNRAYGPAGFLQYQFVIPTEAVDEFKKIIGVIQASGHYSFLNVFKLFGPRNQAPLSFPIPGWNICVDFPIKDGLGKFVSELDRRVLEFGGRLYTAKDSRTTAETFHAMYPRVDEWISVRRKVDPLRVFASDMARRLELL

For `C[C@H]1COC2(CCN(c3nc(=O)c4cc(C(F)(F)F)cc([N+](=O)[O-])c4s3)CC2)O1` [BTZ043, reference compound], the “mode of DprE1 inhibition (in words)” value (DprE1) is given as “suicide inhibitor”, the MIC (H37Rv strain of Mtb; [1]) is given as less than 0.004 µM and the MIC (H37Rv strain of Mtb; [2]) is given as less than 0.004 µM.

With `C[C@H]1COC2(CCN(c3nc(=O)c4cc(C(F)(F)F)cc(N=[N+]=[N-])c4s3)CC2)O1` [Compound 3] the MIC (H37Rv strain of Mtb; [1]) was 0.47 µM, the MIC (H37Rv strain of Mtb; [2]) was 0.46 µM and the “activity against H37Rv strain of Mtb (in words)” value (shortened to “activity against H37Rv strain”) (H37Rv strain of Mtb) was “outstanding activity; also recorded: impressive activity”. For the same compound, the “activity against H37Rv strain” value (H37Rv strain of Mtb; listed as BTZ-N3) was “impressive activity”.

For `C[C@H]1COC2(CCN(c3nc(=O)c4cc(C(F)(F)F)cc(N)c4s3)CC2)O1` [Compound 6], the MIC (H37Rv strain of Mtb; [3]) was greater than 1 µM, the “percentage in brackets after MIC >1, 7H12” value (H37Rv strain of Mtb) was 87% and the MIC (H37Rv strain of Mtb; [4]) was greater than 1 µM. The “percentage in brackets after MIC >1, GAS” value (H37Rv strain of Mtb) was 0%.

In the case of `CC1COC2(CCN(c3nc(=O)c4cc(C(F)(F)F)ccc4s3)CC2)O1` (centres unmarked) [Compound 8], the MIC (H37Rv strain of Mtb; [3]) is reported as greater than 1 µM, the “percentage in brackets after MIC >1, 7H12” value (H37Rv strain of Mtb) is reported as 87% and the MIC (H37Rv strain of Mtb; [4]) is reported as greater than 1 µM. The “percentage in brackets after MIC >1, GAS” value (H37Rv strain of Mtb) was 36% and the “activity against H37Rv strain” value (H37Rv strain of Mtb) was “not significantly active; also recorded: reduced”.

`C[C@H]1COC2(CCN(c3nc(=O)c4cc(C(F)(F)F)cc(-n5cc(CN(C)C)nn5)c4s3)CC2)O1` [Compound 9] showed an MIC (H37Rv strain of Mtb; [1]) of 0.87 µM and an MIC (H37Rv strain of Mtb; [2]) of 0.95 µM.

`NNC(=O)c1ccncc1` [INH, reference compound] gave an MIC (H37Rv strain of Mtb; [3]) of 0.1 µM and an MIC (H37Rv strain of Mtb; [4]) of 0.03 µM.

For `O=c1nc(N2CCN(CC3CCCCC3)CC2)sc2c([N+](=O)[O-])cc(C(F)(F)F)cc12` [PBTZ169], the “mode of DprE1 inhibition (in words)” value (DprE1) is listed as “suicide inhibitor”.

Compound `CO[C@H]1/C=C/O[C@@]2(C)Oc3c(C)c(O)c4c(O)c(c(/C=N/N5CCN(C)CC5)c(O)c4c3C2=O)NC(=O)/C(C)=C\C=C\[C@H](C)[C@H](O)[C@@H](C)[C@@H](O)[C@@H](C)[C@H](OC(C)=O)[C@@H]1C` [Rifampin, reference compound] has an MIC (H37Rv strain of Mtb; [1]) of 0.05 µM and an MIC (H37Rv strain of Mtb; [2]) of 0.04 µM.
